Test results from ChEMBL document CHEMBL1147122, “Eurysterols A and B, cytotoxic and antifungal steroidal sulfates from a marine sponge of the genus Euryspongia” (J Nat Prod, 2007).

How the values were obtained:
Candida albicans [1] = experiment: Antifungal activity against amphotericin-B-resistant Candida albicans ATCC 90873 after 14 to 16 hrs; format: functional
HCT-116 = experiment: Cytotoxicity against human HCT116 cells after 72 hrs; format: cell-based; details: HCT-116, 72 h
Candida albicans [2] = experiment: Antifungal activity against wild type-Candida albicans ATCC 32354 after 14 to 16 hrs; format: functional

Row | SMILES | MIC (Candida albicans [1]) [µg/mL] | IC50 (HCT-116) [µg/mL] | MIC (Candida albicans [2]) [µg/mL]
1 | CC(C)CCC[C@@H](C)[C@H]1CC[C@@H]2[C@]1(C)CC[C@H]1[C@@]23C[C@@H](O)[C@@]2(O)C[C@@H](OS(=O)(=O)[O-])CC[C@]12CO3.[Na+] [EURYSTEROL A] | 15.6 | 2.9 | 15.6
2 | CC(C)C/C=C/[C@@H](C)[C@H]1CC[C@@H]2[C@]1(C)CC[C@H]1[C@@]23C[C@@H](O)[C@@]2(O)C[C@@H](OS(=O)(=O)[O-])CC[C@]12CO3.[Na+] [EURYSTEROL B] | 62.5 | 14.3 | 62.5
